{
  "source": "patent US20220041603A1",
  "about": "“SRC INHIBITOR COMPOUNDS FOR SKELETAL MUSCLE MODULATION, METHODS AND USES THEREOF” (SOCIETE DES PRODUITS NESTLE S.A., priority 2018, published 2022)",
  "key": {"[1]": {"tested_on": "human primary muscle stem cells", "assay": "Assay for muscle stem cell commitment (Pax7/MyoD immunofluorescence high content screening)", "format": "cell-based", "settings": "Human Skeletal Muscle Myoblasts, donor 8 and donor 4, dose-dependent response, cultures grown 96 hours; for proportion of MyoD+ cells as percent of total cell number (myogenic commitment): MyoD+ = Pax7-/MyoD+ cells; for number of Pax7+ cells (expansion of human primary muscle stem cells): Pax7+ regardless of MyoD expression", "description": "(§1) The inventors developed a high content screening to test in vitro compounds on human primary adult muscle cells. Human Skeletal Muscle Myoblasts (HSMM) were purchased from Lonza (https://bioscience.lonza.com). These cells were isolated from the upper arm or leg muscle tissue of normal donors and used after the second passage. Several donors were tested to ensure cell viability and purity before selecting the final donors, which are a person (Donor 8) and a person (Donor 4).\nThe primary screening assay was based on the high content detection of two important myogenic regulatory factors (Pax7 and MyoD) by immunofluorescence. Pax7 and MyoD are the major hallmarks of muscle stem cell stemness and commitment and can be used to monitor muscle stem cell progeny. In particular, Pax7 marks early amplification while MyoD is a later marker for myogenic commitment, and combinations of these markers define the different states of proliferation, differentiation and self-renewal.\nHuman primary myoblasts were seeded in 384 well plates at a density of 1′000 cells per well in skeletal muscle growth medium (SKM-M, AMSbio). For treatment, compounds were directly added to the myoblast cultures 16 hours after initial plating. All cultures were then grown for 96 hours. Cells were stained for Pax7 and MyoD expression using antibodies directed against Pax7 and MyoD and counterstained with Hoechst 33342 to visualize cell nuclei. […] Pax7+ cells are defined as cells that express Pax7 regardless of MyoD expression. Image acquisition was performed using the ImageXpress (Molecular Devices) platform. Custom module analysis based on Multi-Wavelength Cell Scoring of the MetaXpress software was used for quantification."}, "[2]": {"tested_on": "human primary muscle cells", "assay": "Assay for myogenesis (troponin-T myotube detection)", "format": "cell-based", "settings": "human primary myoblasts, donor 8 and donor 4; dose dependent response; compound treatment 96 hours after differentiation induction", "from_the_text": "as §1, with “passage.” for “passage. Several donors were tested to ensure cell viability and purity before selecting the final donors, which are a person (Donor 8) and a person (Donor 4).”\nThis secondary assay focused on the later stage of myogenesis when the muscle cells fuse together and form multinucleated myotubes. This assay was based on the detection of the mature troponin-T protein that is expressed in myotubes. In particular, two measurements were made:\nFusion factor, which is the % of nuclei that are inside the multinucleated myotubes compare to total nuclei and give a readout for muscle cell differentiation.\nMyotube area, which is measured based on the Troponin T staining and give a readout on the myotube size and muscle fiber growth.\nAfter one day, the differentiation is induced by a medium change. For treatment, compounds were directly added to the myoblast cultures for 96 hours. Myotubes were stained for TroponinT expression using antibodies directed against TroponinT and counterstained with Hoechst 33342 to visualize cell nuclei. Image acquisition was performed using the ImageXpress (Molecular Devices) platform. Custom module analysis based on Multi-Wavelength Cell Scoring of the MetaXpress software was used for quantification."}},
  "data": [
    {"smiles": "CC(C)(C)n1nc(-c2cccc3ccccc23)c2c(N)ncnc21", "note": "[Napthyl-PP1, 1-(1,1-Dimethylethyl)-3-(1-naphthalenyl)-1H-pyrazolo[3,4-d]pyrimidin-4-amine]", "values": [
      {"measurement": "proportion of MyoD+ cells as percent of total cell number (myogenic commitment)", "setting": "[1]", "result": "increase"},
      {"measurement": "number of Pax7+ cells (expansion of human primary muscle stem cells)", "setting": "[1]", "result": "increase"},
      {"measurement": "myofiber growth (area covered by troponinT-positive myotubes)", "setting": "[2]", "result": "enhances"},
      {"measurement": "myogenic differentiation (Fusion Factor, percent nuclei within troponinT-positive myotubes)", "setting": "[2]", "result": "enhances"}
    ]},
    {"smiles": "Cc1ccc(-c2nn(C(C)(C)C)c3ncnc(N)c23)cc1", "note": "[PP1, 1-(1,1-Dimethylethyl)-3-(4-methylphenyl)-1H-pyrazolo[3,4-d]pyrimidin-4-amine]", "values": [
      {"measurement": "proportion of MyoD+ cells as percent of total cell number (myogenic commitment)", "setting": "[1]", "result": "increase"},
      {"measurement": "number of Pax7+ cells (expansion of human primary muscle stem cells)", "setting": "[1]", "result": "increase"},
      {"measurement": "myogenic differentiation (Fusion Factor, percent nuclei within troponinT-positive myotubes)", "setting": "[2]", "result": "enhances"}
    ]},
    {"smiles": "CC(C)(C)n1nc(-c2ccc(Cl)cc2)c2c(N)ncnc21", "note": "[PP2, 3-(4-Chlorophenyl)-1-(1,1-dimethylethyl)-1H-pyrazolo[3,4-d]pyrimidin-4-amine]", "values": [
      {"measurement": "proportion of MyoD+ cells as percent of total cell number (myogenic commitment)", "setting": "[1]", "result": "increase"},
      {"measurement": "number of Pax7+ cells (expansion of human primary muscle stem cells)", "setting": "[1]", "result": "increase"},
      {"measurement": "myogenic differentiation (Fusion Factor, percent nuclei within troponinT-positive myotubes)", "setting": "[2]", "result": "enhances"}
    ]}
  ]
}
